Measurements: patent US20230089867A1, “CYCLIC PENTAMER COMPOUNDS AS PROPROTEIN CONVERTASE SUBTILISIN/KEXIN TYPE 9 (PCSK9) INHIBITORS FOR THE TREATMENT OF METABOLIC DISORDER” (Novartis AG, priority 2018, published 2023)
pIC50: −log10 of the molar value.

Target: human PCSK9 (Homo sapiens, UniProt Q8NBP7)
Test: PCSK9 ligand binding TR-FRET assay (interference with binding of human PCSK9 to human LDLR)
Settings: for Max % inhibition: PCSK9 FRET assay, efficacy (Amax), 100% = 1 uM unlabeled human PCSK9, 0% = DMSO; for pIC50: TR-FRET, human PCSK9 Alexa Fluor 647 / human LDLR extracellular domain-Europium Kryptate, read-out: PCSK9 FRET Assay IC50
Outline: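 Threefold compound dilutions were pre-incubated 30 min with PCSK9, after which 4 nM Europium Kryptate-tagged human LDLR ectodomain was added for a further 2 h.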

human PCSK9, sequence (Q8NBP7 153-692): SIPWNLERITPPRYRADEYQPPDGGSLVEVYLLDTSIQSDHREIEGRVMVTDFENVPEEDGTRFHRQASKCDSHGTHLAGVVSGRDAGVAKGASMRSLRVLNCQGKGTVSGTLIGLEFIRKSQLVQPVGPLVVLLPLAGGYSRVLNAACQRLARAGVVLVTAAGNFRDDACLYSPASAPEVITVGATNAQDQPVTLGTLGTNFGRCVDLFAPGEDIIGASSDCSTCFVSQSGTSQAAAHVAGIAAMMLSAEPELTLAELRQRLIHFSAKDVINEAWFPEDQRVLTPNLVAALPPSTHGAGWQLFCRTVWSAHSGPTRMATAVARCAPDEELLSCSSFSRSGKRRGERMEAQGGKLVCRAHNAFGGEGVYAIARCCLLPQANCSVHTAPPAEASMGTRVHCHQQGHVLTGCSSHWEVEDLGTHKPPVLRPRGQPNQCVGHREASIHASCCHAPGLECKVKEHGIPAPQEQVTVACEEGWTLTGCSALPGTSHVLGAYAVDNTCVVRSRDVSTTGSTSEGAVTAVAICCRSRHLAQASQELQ
human PCSK9, sequence (Q8NBP7 31-152 partner limits assumed): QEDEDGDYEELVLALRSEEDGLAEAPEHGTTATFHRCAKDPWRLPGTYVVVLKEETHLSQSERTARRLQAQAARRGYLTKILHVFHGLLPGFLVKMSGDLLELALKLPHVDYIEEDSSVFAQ

Max % inhibition [%] | pIC50 | SMILES
101.48 | 8.68 | COC[C@@H]1NC(=O)[C@H](CC(=O)N2CCOCC2)N(Cc2ccc(Cl)cc2Oc2ccc(-c3cnc(CN(C)C)n3C)cc2)C(=O)C[C@@H](Cc2ccccc2)C(=O)N(C)[C@@H](C)CNC(=O)C[C@H](Cc2ccc(Cl)cc2)N(C)C1=O [Compound 38, (2S,5S,8S,13S,16R)-16-benzyl-1-(4-chloro-2-(4-(2-((dimethylamino)methyl)-1-methyl-1H-imidazol-5-yl)phenoxy)benzyl)-8-(4-chlorobenzyl)-5-(methoxymethyl)-7,13,14-trimethyl-2-(2-morpholino-2-oxoethyl)-1,4,7,11,14-pentaazacyclooctadecane-3,6,10,15,18-pentaone]
104.01 | 9.05 | COC[C@@H]1NC(=O)[C@H](C)N(Cc2c(OCC(F)(F)F)cc(Cl)cc2Oc2ccc(-c3cnc(CN(C)C)n3C)cc2)C(=O)CCC(=O)N(C)[C@H]2CCCC[C@@H]2NC(=O)C[C@H](Cc2ccc(Cl)cc2)N(C)C1=O [Compound 39, (4S,7S,10S,16aS,20aS)-11-(4-chloro-2-(4-(2-((dimethylamino)methyl)-1-methyl-1H-imidazol-5-yl)phenoxy)-6-(2,2,2-trifluoroethoxy)benzyl)-4-(4-chlorobenzyl)-7-(methoxymethyl)-5,10,16-trimethylhexadecahydrobenzo[l][1,4,7,11,14]pentaazacyclooctadecine-2,6,9,12,15(3H)-pentaone]
104.99 | 7.00 | CCC(CC)[C@@H]1CC(=O)N(Cc2ccc(Cl)cc2Oc2ccc(-c3cnc(CN(C)C)n3C)cc2)[C@@H](C)C(=O)N[C@@H](COC)C(=O)N(C)[C@@H](Cc2ccc(Cl)cc2)CC(=O)NC[C@H](C)N(C)C1=O [Compound 40, (2S,5S,8S,13S,16S)-1-(4-chloro-2-(4-(2-((dimethylamino)methyl)-1-methyl-1H-imidazol-5-yl)phenoxy)benzyl)-8-(4-chlorobenzyl)-5-(methoxymethyl)-2,7,13,14-tetramethyl-16-(pentan-3-yl)-1,4,7,11,14-pentaazacyclooctadecane-3,6,10,15,18-pentaone]
84.34 | 8.33 | COC[C@@H]1NC(=O)C(C)N(Cc2c(F)cc(F)cc2Oc2ccc(-c3cnc(CN(C)C)n3C)cc2)C(=O)C[C@@H](Cc2ccccc2)C(=O)N(C)[C@H]2CCCC[C@@H]2NC(=O)C[C@H](Cc2ccc(Cl)cc2)N(C)C1=O (stereo partly drawn) [Compound 41, (4S,7S,14R,16aS,20aS)-14-benzyl-4-(4-chlorobenzyl)-11-(2-(4-(2-((dimethylamino)methyl)-1-methyl-1H-imidazol-5-yl)phenoxy)-4,6-difluorobenzyl)-7-(methoxymethyl)-5,10,16-trimethylhexadecahydrobenzo[l][1,4,7,11,14]pentaazacyclooctadecine-2,6,9,12,15(3H)-pentaone]
102.18 | 7.61 | COC[C@@H]1NC(=O)[C@H](C)N(Cc2ccc(C(F)F)cc2Oc2ccc(-c3cnc(CN(C)C)n3C)cc2)C(=O)C[C@@H](Cc2ccccc2)C(=O)N(C)[C@@H](C)CNC(=O)C[C@H](Cc2ccc(Cl)cc2)N(C)C1=O [Compound 42, (2S,5S,8S,13S,16R)-16-benzyl-8-(4-chlorobenzyl)-1-(4-(difluoromethyl)-2-(4-(2-((dimethylamino)methyl)-1-methyl-1H-imidazol-5-yl)phenoxy)benzyl)-5-(methoxymethyl)-2,7,13,14-tetramethyl-1,4,7,11,14-pentaazacyclooctadecane-3,6,10,15,18-pentaone]
94.38 | 8.74 | COC[C@@H]1NC(=O)[C@H](C)N(Cc2ccc(Cl)cc2Oc2ccc(-c3cnc(CN4CCCC4)n3C)cc2)C(=O)C[C@@H](Cc2ccccc2)C(=O)N(C)[C@@H](CCCCN(C)C)CNC(=O)C[C@H](Cc2ccc(Cl)cc2)N(C)C1=O.Cl [Compound 43, (2S,5S,8S,13S,16R)-16-benzyl-1-(4-chloro-2-(4-(1-methyl-2-(pyrrolidin-1-ylmethyl)-1H-imidazol-5-yl)phenoxy)benzyl)-8-(4-chlorobenzyl)-13-(4-(dimethylamino)butyl)-5-(methoxymethyl)-2,7,14-trimethyl-1,4,7,11,14-pentaazacyclooctadecane-3,6,10,15,18-pentaone hydrochloride]
95.96 | 8.66 | COC[C@@H]1NC(=O)[C@H](C)N(Cc2ccc(Cl)cc2Oc2ccc(-c3cnc(CN(C)C)n3C)cc2)C(=O)C[C@@H](Cc2ccc(F)cn2)C(=O)N(C)[C@@H](C)CNC(=O)C[C@H](Cc2ccc(Cl)cc2)N(C)C1=O [Compound 45, (2S,5S,8S,13S,16R)-1-(4-chloro-2-(4-(2-((dimethylamino)methyl)-1-methyl-1H-imidazol-5-yl)phenoxy)benzyl)-8-(4-chlorobenzyl)-16-((5-fluoropyridin-2-yl)methyl)-5-(methoxymethyl)-2,7,13,14-tetramethyl-1,4,7,11,14-pentaazacyclooctadecane-3,6,10,15,18-pentaone]
96.56 | 8.57 | COC[C@@H]1NC(=O)[C@H](CCC(=O)OC(C)(C)C)N(Cc2ccc(Cl)cc2Oc2ccc(-c3cnc(CN(C)C)n3C)cc2)C(=O)C[C@@H](Cc2ccccc2)C(=O)N(C)[C@H]2CCCC[C@@H]2NC(=O)C[C@H](Cc2ccc(Cl)cc2)N(C)C1=O [Compound 46, tert-butyl 3-((4S,7S,10S,14R,16aS,20aS)-14-benzyl-11-(4-chloro-2-(4-(2-((dimethylamino)methyl)-1-methyl-1H-imidazol-5-yl)phenoxy)benzyl)-4-(4-chlorobenzyl)-7-(methoxymethyl)-5,16-dimethyl-2,6,9,12,15-pentaoxodocosahydrobenzo[l][1,4,7,11,14]pentaazacyclooctadecin-10-yl]propanoate]
87.82 | 8.32 | COC[C@@H]1NC(=O)[C@H](C)N(Cc2ccc(F)cc2Oc2ccc(-c3cnc(CN(C)C)n3C)cc2)C(=O)C[C@@H](Cc2ccccc2)C(=O)N(C)[C@H]2CCCC[C@@H]2NC(=O)C[C@H](Cc2ccc(Cl)cc2)N(C)C1=O [Compound 48, (4S,7S,10S,14R,16aS,20aS)-14-benzyl-4-(4-chlorobenzyl)-11-(2-(4-(2-((dimethylamino)methyl)-1-methyl-1H-imidazol-5-yl)phenoxy)-4-fluorobenzyl)-7-(methoxymethyl)-5,10,16-trimethylhexadecahydrobenzo[l][1,4,7,11,14]pentaazacyclooctadecine-2,6,9,12,15(3H)-pentaone]
99.12 | 8.77 | [2H]C([2H])([2H])N(Cc1ncc(-c2ccc(Oc3cc(Cl)ccc3CN3C(=O)C[C@@H](Cc4ccccc4)C(=O)N(C)[C@@H](C)CNC(=O)C[C@H](Cc4ccc(Cl)cc4)N(C)C(=O)[C@H](COC)NC(=O)[C@@H]3CC)cc2)n1C)C([2H])([2H])[2H] [Compound 49, (2S,5S,8S,13S,16R)-16-benzyl-1-(2-(4-(2-((bis(methyl-d3)amino)methyl)-1-methyl-1H-imidazol-5-yl)phenoxy)-4-chlorobenzyl)-8-(4-chlorobenzyl)-2-ethyl-5-(methoxymethyl)-7,13,14-trimethyl-1,4,7,11,14-pentaazacyclooctadecane-3,6,10,15,18-pentaone]
101.21 | 7.39 | COC[C@@H]1NC(=O)[C@H](C)N(Cc2ccc(Cl)cc2Oc2ccc(-c3cnc(CN(C)C)n3C)cc2)C(=O)C[C@@H](Cc2ccccc2)C(=O)N(C)C(C)C(C)NC(=O)C[C@H](Cc2ccc(Cl)cc2)N(C)C1=O (stereo partly drawn) [Compound 50, (2S,5S,8S,16R)-16-benzyl-1-(4-chloro-2-(4-(2-((dimethylamino)methyl)-1-methyl-1H-imidazol-5-yl)phenoxy)benzyl)-8-(4-chlorobenzyl)-5-(methoxymethyl)-2,7,12,13,14-pentamethyl-1,4,7,11,14-pentaazacyclooctadecane-3,6,10,15,18-pentaone]
94.86 | 9.30 | COC[C@@H]1NC(=O)[C@H](C)N(Cc2ccc(Cl)cc2Oc2cc(F)c(-c3cnc(CN4CCCC4)n3C)c(F)c2)C(=O)C[C@@H](Cc2ccccc2)C(=O)N(C)[C@@H](C)CNC(=O)C[C@H](Cc2ccc(Cl)cc2)N(C)C1=O [Compound 51, (2S,5S,8S,13S,16R)-16-benzyl-1-(4-chloro-2-(3,5-difluoro-4-(1-methyl-2-(pyrrolidin-1-ylmethyl)-1H-imidazol-5-yl)phenoxy)benzyl)-8-(4-chlorobenzyl)-5-(methoxymethyl)-2,7,13,14-tetramethyl-1,4,7,11,14-pentaazacyclooctadecane-3,6,10,15,18-pentaone]
92.54 | 8.34 | COC[C@@H]1NC(=O)[C@H](CCF)N(Cc2ccc(Cl)cc2Oc2ccc(-c3cnc(CN4CCCC4)n3C)cc2)C(=O)C[C@@H](Cc2ccccc2)C(=O)N(C)[C@@H](C)CNC(=O)C[C@H](Cc2ccc(Cl)cc2)N(C)C1=O [Compound 54, (2S,5S,8S,13S,16R)-16-benzyl-1-(4-chloro-2-(4-(1-methyl-2-(pyrrolidin-1-ylmethyl)-1H-imidazol-5-yl)phenoxy)benzyl)-8-(4-chlorobenzyl)-2-(2-fluoroethyl)-5-(methoxymethyl)-7,13,14-trimethyl-1,4,7,11,14-pentaazacyclooctadecane-3,6,10,15,18-pentaone]
58.77 | 8.03 | COC[C@@H]1NC(=O)[C@H](C)N(Cc2ccc(Cl)cc2Oc2ccc(-c3c(C)nc(CN4CCCC4)n3C)cc2)C(=O)C[C@@H](Cc2ccccc2)C(=O)N(C)[C@@H](C)CNC(=O)C[C@H](Cc2ccc(Cl)cc2)N(C)C1=O [Compound 55, (2S,5S,8S,13S,16R)-16-benzyl-1-(4-chloro-2-(4-(1,4-dimethyl-2-(pyrrolidin-1-ylmethyl)-1H-imidazol-5-yl)phenoxy)benzyl)-8-(4-chlorobenzyl)-5-(methoxymethyl)-2,7,13,14-tetramethyl-1,4,7,11,14-pentaazacyclooctadecane-3,6,10,15,18-pentaone]
